Columns and labels:
[1] = molecular target: T1, Prostaglandin D2 receptor (Homo sapiens, UniProt Q13258); test: In vitro inhibition of [3H]- PGD-2 radioligand binding to prostaglandin D2 receptor on human platelet membrane
T1 sequence (Q13258 whole entry): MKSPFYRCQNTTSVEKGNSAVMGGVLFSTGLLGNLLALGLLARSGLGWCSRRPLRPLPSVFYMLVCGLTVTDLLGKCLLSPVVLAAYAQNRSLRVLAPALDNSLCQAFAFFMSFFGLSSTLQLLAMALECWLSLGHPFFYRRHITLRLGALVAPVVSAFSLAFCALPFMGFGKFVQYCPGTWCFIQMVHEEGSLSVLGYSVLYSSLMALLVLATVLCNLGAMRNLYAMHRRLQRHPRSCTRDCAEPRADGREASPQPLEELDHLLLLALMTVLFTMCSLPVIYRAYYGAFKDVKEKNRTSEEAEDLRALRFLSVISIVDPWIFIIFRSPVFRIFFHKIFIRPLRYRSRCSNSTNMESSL

[2] = molecular target: T1, Prostaglandin D2 receptor; test: In vitro inhibition of cAMP formation evoked by prostaglandin D2 receptor in human platelets; assay type: functional
Cavia porcellus [3] = test: In vivo inhibition of antigen induced increase in intranasal pressure in actively sensitized guinea pig after an intravenous dose of 1 mg/kg; assay type: functional
Cavia porcellus [4] = test: In vivo inhibition of antigen induced increase in intranasal pressure in actively sensitized guinea pig after dose of 10 mg/kg; assay type: functional; details: for inhibition in vivo at 10 mg/kg: Cavia porcellus
Cavia porcellus [5] = test: Inhibition of increase in specific airway resistance by antigen inhalation in conscious guinea pig at a dose of 10 mg/kg administered perorally 1 hr before challenge in asthma model; assay type: functional; details: route oral

IC50 [1] [nM] | IC50 [2] [nM] | Compound | also measured
18 | 25 | O=C(O)CCC/C=C\C[C@@H]1[C@H]2CC[C@H](C2)[C@H]1NS(=O)(=O)c1ccc2cc(-c3ccc(O)cc3)[nH]c2c1 | inhibition in vivo at 1 mg/kg (Cavia porcellus [3]): 42%
120 | 430 | O=C(O)CCCCCC[C@@H]1[C@H]2CC[C@H](C2)[C@H]1NS(=O)(=O)c1ccc2oc3ccccc3c2c1 | 
5300 | 340 | O=C(O)CCC/C=C\C[C@@H]1[C@H]2CC[C@H](C2)[C@H]1NS(=O)(=O)c1ccccc1Br | 
62 | 380 | O=C(O)CCC/C=C\C[C@@H]1[C@H]2CC[C@H](C2)[C@H]1NS(=O)(=O)c1ccc(-c2nnnn2-c2ccccc2)cc1 | 
100 | 180 | O=C(O)CCC/C=C\C[C@@H]1[C@H]2CC[C@H](C2)[C@H]1NS(=O)(=O)c1ccc(/C=C/c2ccccc2)cc1 | 
960 | 33 | COc1cc2c(cc1S(=O)(=O)N[C@@H]1[C@@H]3CC[C@@H](C3)[C@H]1CC(=O)CCCCC(=O)O)oc1ccccc12 | 
8.5 | 210 | O=C(O)CCC/C=C\C[C@@H]1[C@H]2CC[C@H](C2)[C@H]1NS(=O)(=O)c1ccc(C#Cc2ccccc2)cc1 | 
90 | 100 | O=C(O)CCC/C=C\C[C@@H]1[C@H]2CC[C@H](C2)[C@H]1NS(=O)(=O)c1ccc(/C=C/c2ccccc2)s1 | 
450 | 200 | COc1ccc(-c2ccc(S(=O)(=O)N[C@@H]3[C@@H]4CC[C@@H](C4)[C@H]3C/C=C\CCCC(=O)O)cc2)cc1 | 
64 | 180 | O=C(O)CCC/C=C\C[C@@H]1[C@H]2CC[C@H](C2)[C@H]1NS(=O)(=O)c1ccc2sc3ccccc3c2c1 | inhibition in vivo at 1 mg/kg (Cavia porcellus [3]): 31%
180 | 320 | CC(C)(CC/C=C\C[C@@H]1[C@H]2CC[C@H](C2)[C@H]1NS(=O)(=O)c1ccc2oc3ccccc3c2c1)C(=O)O | 
680 | 570 | O=C(O)CCC/C=C\C[C@@H]1[C@H]2CC[C@H](C2)[C@H]1NS(=O)(=O)c1ccc(Oc2ccccc2)cc1 | 
22 | 22 | O=C(O)CCC/C=C\C[C@@H]1[C@H]2CC[C@H](C2)[C@H]1NS(=O)(=O)c1ccc2[nH]c3ccccc3c2c1 | inhibition in vivo at 1 mg/kg (Cavia porcellus [3]): -9%
5400 | 130 | Cc1cc(C)c(S(=O)(=O)N[C@@H]2[C@@H]3CC[C@@H](C3)[C@H]2C/C=C\CCCC(=O)O)c(C)c1 | 
550 | 57 | O=C(O)CCC/C=C\C[C@@H]1[C@H]2CC[C@H](C2)[C@H]1NS(=O)(=O)c1ccc2oc3cc([N+](=O)[O-])ccc3c2c1 | 
5200 | 650 | O=C(O)CCC/C=C\C[C@@H]1[C@H]2CC[C@H](C2)[C@H]1NS(=O)(=O)c1ccc(Cc2ccccc2)cc1 | 
6000 | 120 | O=C(O)CCC/C=C\C[C@@H]1[C@H]2CC[C@H](C2)[C@H]1NS(=O)(=O)c1ccc(NC(=O)c2ccccc2)cc1 | 
> 10000 | 390 | COc1ccc(S(=O)(=O)N[C@@H]2[C@@H]3CC[C@@H](C3)[C@H]2C/C=C\CCCC(=O)O)cc1 | 
580 | 220 | O=C(O)CCC/C=C\C[C@@H]1[C@H]2CC[C@H](C2)[C@H]1NS(=O)(=O)c1ccc(-c2ccccc2)s1 | 
8600 |  | O=C(O)CCC/C=C\C[C@@H]1[C@H]2CC[C@H](C2)[C@H]1NS(=O)(=O)c1ccccc1-c1ccccc1 | 
200 | 250 | O=C(O)CCC/C=C\C[C@@H]1[C@H]2CC[C@H](C2)[C@H]1NS(=O)(=O)c1ccc2oc3ccc(O)cc3c2c1 | 
24 | 52 | COc1cc2c(cc1S(=O)(=O)N[C@@H]1[C@@H]3CC[C@@H](C3)[C@H]1C/C=C\CCCC(=O)O)oc1ccccc12 | Inhibition (Cavia porcellus [4]; 10 mg/kg): 82%; inhibition in vivo at 10 mg/kg (Cavia porcellus [4]): 81%; inhibition in vivo at 10 mg/kg (Cavia porcellus [5]): 42%
36 | 170 | CN(C)c1ccc2c(c1)oc1ccc(S(=O)(=O)N[C@@H]3[C@@H]4CC[C@@H](C4)[C@H]3C/C=C\CCCC(=O)O)cc12 | 
42 | 32 | CS(=O)(=O)NC(=O)CCC/C=C\C[C@@H]1[C@H]2CC[C@H](C2)[C@H]1NS(=O)(=O)c1ccc2oc3ccccc3c2c1 | 

IC50 [1] [nM] | IC50 [2] [nM] | Compound | also measured
410 | 200 | O=C(O)CCC/C=C\C[C@@H]1[C@H]2CC[C@H](C2)[C@H]1NS(=O)(=O)c1ccc(-c2cccs2)s1 | 
670 | 280 | O=C(O)CCC/C=C\C[C@@H]1[C@H]2CC[C@H](C2)[C@H]1NS(=O)(=O)c1cccc(-c2ccccc2)c1 | 
190 | 180 | O=C(O)CCC/C=C\C[C@@H]1[C@H]2CC[C@H](C2)[C@H]1NS(=O)(=O)c1cc2oc3ccccc3c2cc1O | 
22 | 160 | O=C(O)CCC/C=C\C[C@@H]1[C@H]2CC[C@H](C2)[C@H]1NS(=O)(=O)c1ccc2c(c1)oc1ccccc12 | 
 | 71 | O=C(O)CCC/C=C\C[C@@H]1[C@H]2CC[C@H](C2)[C@H]1NS(=O)(=O)c1ccc2cc(-c3ccccc3)[nH]c2c1 | 
> 10000 | 720 | CC(C)(C)c1ccc(S(=O)(=O)N[C@@H]2[C@@H]3CC[C@@H](C3)[C@H]2C/C=C\CCCC(=O)O)cc1 | 
5400 | 280 | COc1ccc(S(=O)(=O)N[C@@H]2[C@@H]3CC[C@@H](C3)[C@H]2C/C=C\CCCC(=O)O)cc1[N+](=O)[O-] | 
 | > 1000 | O=C(O)CCC/C=C\C[C@@H]1[C@H]2CC[C@H](C2)[C@H]1NS(=O)(=O)c1ccc2c(c1)Cc1ccccc1-2 | 
1100 | 86 | O=C(O)CCC/C=C\C[C@@H]1[C@H]2CC[C@H](C2)[C@H]1NS(=O)(=O)c1ccc(C(=O)Nc2ccccc2)cc1 | 
190 | 210 | O=C(O)CCC/C=C\C[C@@H]1[C@H]2CC[C@H](C2)[C@H]1NS(=O)(=O)c1ccc(-c2cc3ccccc3[nH]2)cc1 | 
550 | 260 | O=C(O)CCC/C=C\C[C@@H]1[C@H]2CC[C@H](C2)[C@H]1NS(=O)(=O)c1ccc(CCc2ccccc2)cc1 | 
660 | 350 | O=C(O)CCC/C=C\C[C@@H]1[C@H]2CC[C@H](C2)[C@H]1NS(=O)(=O)c1ccc(-c2ccc(C(F)(F)F)cc2)cc1 | 
15 | 45 | COc1ccc(-c2cc3ccc(S(=O)(=O)N[C@@H]4[C@@H]5CC[C@@H](C5)[C@H]4C/C=C\CCCC(=O)O)cc3[nH]2)cc1 | inhibition in vivo at 1 mg/kg (Cavia porcellus [3]): 40%
25 |  | O=C(O)CCC/C=C\C[C@@H]1[C@H]2CC[C@H](C2)[C@H]1NS(=O)(=O)c1ccc(/N=N/c2ccccc2)cc1 | 
680 | 19 | O=C(O)CCCCC(=O)C[C@@H]1[C@H]2CC[C@H](C2)[C@H]1NS(=O)(=O)c1ccc2oc3ccccc3c2c1 | 
380 | 190 | Cn1c(-c2ccccc2)cc2ccc(S(=O)(=O)N[C@@H]3[C@@H]4CC[C@@H](C4)[C@H]3C/C=C\CCCC(=O)O)cc21 | 
32 | 34 | CCOc1cc2c(cc1S(=O)(=O)N[C@@H]1[C@@H]3CC[C@@H](C3)[C@H]1C/C=C\CCCC(=O)O)oc1ccccc12 | inhibition in vivo at 10 mg/kg (Cavia porcellus [4]): 53%
330 | 160 | O=C(O)CCC/C=C\C[C@@H]1[C@H]2CC[C@H](C2)[C@H]1NS(=O)(=O)c1ccc(Nc2ccccc2)cc1 | 
 |  | O=C(O)CCC/C=C\C[C@@H]1[C@H]2CC[C@H](C2)[C@H]1NS(=O)(=O)c1ccc2oc3ccccc3c2c1 | inhibition in vivo at 10 mg/kg (Cavia porcellus [4]): 75%
57 | 320 | COc1cc2c(cc1S(=O)(=O)N[C@@H]1[C@@H]3CC[C@@H](C3)[C@H]1C/C=C\CCC(C)(C)C(=O)O)oc1ccccc12 | 
200 | 180 | O=C(O)CCC/C=C\C[C@@H]1[C@H]2CC[C@H](C2)[C@H]1NS(=O)(=O)c1ccc(/C=C\c2ccccc2)cc1 | 
34 | 330 | COc1ccc2oc3ccc(S(=O)(=O)N[C@@H]4[C@@H]5CC[C@@H](C5)[C@H]4C/C=C\CCCC(=O)O)cc3c2c1 | 
8600 | > 1000 | O=C(O)CCC/C=C\C[C@@H]1[C@H]2CC[C@H](C2)[C@H]1NS(=O)(=O)Cc1ccc(-c2ccccc2)cc1 | 
